ChEMBL document CHEMBL5260838 (J Med Chem, 2019)
In brackets after ≈: the same amount, converted by molar mass. Each block holds one molecule with its values, some of them ahead of it.

Experiments:
[1] = target: T1, Sodium channel protein type 9 subunit alpha (Homo sapiens, UniProt Q15858); experiment: Displacement of [3H]GX-545 from human Nav1.7 alpha subunit expressed in HEK293 cells co-expressing beta1 subunit by liquid scintillation counting analysis; assay type: cell-based
[2] = target: T1, Sodium channel protein type 9 subunit alpha; experiment: Inhibition of human Nav1.7 alpha subunit expressed in HEK293 cells co-expressing beta1 subunit at -60 mV holding potential by whole-cell patch voltage clamp electrophysiology recording; assay type: cell-based
[3] = Lipophilicity, logD of the compound at pH 7.4; assay type: physicochemical; settings: buffer
[4] = system: MDR1; experiment: Apparent permeability from apical to basolateral side in MDCK1 cells expressing MDR1; assay type: ADME, cell-based, Canis lupus familiaris; settings: dog, MDCK-MDR1
[5] = target: Sodium channel protein type 9 subunit alpha (Mus musculus, UniProt Q62205); experiment: Inhibition of mouse Nav1.7 at -60 mV holding potential by PatchXpress automated voltage clamp electrophysiology technique
[6] = Oral bioavailability in Sprague-Dawley rat at 5 mg/kg; assay type: ADME, organism-based; settings: in vivo
[7] = Cmax in Sprague-Dawley rat at 5 mg/kg, po; assay type: ADME, organism-based; design: dose 5 mg/kg, route po; settings: in vivo
[8] = Oral bioavailability in FVB mouse at 30 mg/kg; assay type: ADME, organism-based; settings: in vivo
[9] = Volume of distribution at steady state in FVB mouse at 1 mg/kg, iv; assay type: ADME, organism-based; settings: FVB, in vivo, read-out: Vdss
[10] = target: Sodium channel protein type 2 subunit alpha (Homo sapiens, UniProt Q99250); experiment: Inhibition of human Nav1.2 alpha subunit expressed in HEK293 cells co-expressing beta1 subunit at -35 mV holding potential by PatchXpress automated voltage clamp electrophysiology technique; assay type: cell-based
[11] = Protein binding in rat plasma; assay type: ADME, cell-free; settings: read-out: PPB (converted)
[12] = Protein binding in human plasma; assay type: ADME, cell-free; settings: read-out: PPB (converted)
[13] = system: Mus musculus; experiment: Antinociceptive activity against aconitine-induced pain in FVB mouse model expressing human Nav 1.7 I848T mutant assessed as reduction in nociceptive behavior at 3 mg/kg administered 120 mins prior to aconitine administration and measured after 70 mins relative to control; assay type: functional; design: scale not given: the % may be the effect or the level left; settings: time 190 min, 3.167 h
[14] = Clearance in Sprague-Dawley rat at 1 mg/kg, iv; assay type: ADME, organism-based; settings: in vivo
[15] = Cmax in FVB mouse at 30 mg/kg, po; assay type: ADME, organism-based; design: dose 30 mg/kg, route po; settings: in vivo
[16] = Half-life in FVB mouse at 1 mg/kg, iv; assay type: ADME, organism-based; settings: FVB, in vivo
[17] = Half-life in Sprague-Dawley rat at 5 mg/kg, po; assay type: ADME, organism-based; settings: in vivo
[18] = target: Sodium channel protein type 8 subunit alpha (Homo sapiens, UniProt Q9UQD0); experiment: Inhibition of human Nav1.6 alpha subunit expressed in HEK293 cells co-expressing beta1 subunit at -35 mV holding potential by PatchXpress automated voltage clamp electrophysiology technique; assay type: cell-based
[19] = AUC in Sprague-Dawley rat at 5 mg/kg, po; assay type: ADME, organism-based; design: dose 5 mg/kg, route po; settings: in vivo
[20] = Half-life in Sprague-Dawley rat at 1 mg/kg, iv; assay type: ADME, organism-based; settings: in vivo
[21] = target: Sodium channel protein type 9 subunit alpha (Rattus norvegicus, UniProt O08562); experiment: Inhibition of rat Nav1.7 at -60 mV holding potential by PatchXpress automated voltage clamp electrophysiology technique
[22] = Volume of distribution at steady state in Sprague-Dawley rat at 1 mg/kg, iv; assay type: ADME, organism-based; settings: in vivo, read-out: Vdss
[23] = target: Sodium channel protein type 1 subunit alpha (Homo sapiens, UniProt P35498); experiment: Inhibition of human Nav1.1 alpha subunit expressed in HEK293 cells co-expressing beta1 subunit at -40 mV holding potential by PatchXpress automated voltage clamp electrophysiology technique; assay type: cell-based
[24] = Kinetic solubility of compound; assay type: physicochemical; settings: read-out: Kinetic_solubility
[25] = Clearance in FVB mouse at 1 mg/kg, iv; assay type: ADME, organism-based; settings: in vivo
[26] = system: mouse breast cancer resistant protein (Bcrp); experiment: Apparent permeability from apical to basolateral side in MDCK-II cells expressing mouse breast cancer resistant protein; assay type: ADME, cell-based, Canis lupus familiaris; settings: dog
[27] = target: Sodium channel protein type 10 subunit alpha (Mus musculus) (UniProt Q6QIY3); experiment: Inhibition of TTX-resistant Nav1.8 in mouse dorsal root ganglion neuron at 10 uM by voltage clamp recording relative to control; assay type: tissue-based; settings: DRG neuron
Sequence of Sodium channel protein type 10 subunit alpha (Mus musculus) (Q6QIY3 whole entry): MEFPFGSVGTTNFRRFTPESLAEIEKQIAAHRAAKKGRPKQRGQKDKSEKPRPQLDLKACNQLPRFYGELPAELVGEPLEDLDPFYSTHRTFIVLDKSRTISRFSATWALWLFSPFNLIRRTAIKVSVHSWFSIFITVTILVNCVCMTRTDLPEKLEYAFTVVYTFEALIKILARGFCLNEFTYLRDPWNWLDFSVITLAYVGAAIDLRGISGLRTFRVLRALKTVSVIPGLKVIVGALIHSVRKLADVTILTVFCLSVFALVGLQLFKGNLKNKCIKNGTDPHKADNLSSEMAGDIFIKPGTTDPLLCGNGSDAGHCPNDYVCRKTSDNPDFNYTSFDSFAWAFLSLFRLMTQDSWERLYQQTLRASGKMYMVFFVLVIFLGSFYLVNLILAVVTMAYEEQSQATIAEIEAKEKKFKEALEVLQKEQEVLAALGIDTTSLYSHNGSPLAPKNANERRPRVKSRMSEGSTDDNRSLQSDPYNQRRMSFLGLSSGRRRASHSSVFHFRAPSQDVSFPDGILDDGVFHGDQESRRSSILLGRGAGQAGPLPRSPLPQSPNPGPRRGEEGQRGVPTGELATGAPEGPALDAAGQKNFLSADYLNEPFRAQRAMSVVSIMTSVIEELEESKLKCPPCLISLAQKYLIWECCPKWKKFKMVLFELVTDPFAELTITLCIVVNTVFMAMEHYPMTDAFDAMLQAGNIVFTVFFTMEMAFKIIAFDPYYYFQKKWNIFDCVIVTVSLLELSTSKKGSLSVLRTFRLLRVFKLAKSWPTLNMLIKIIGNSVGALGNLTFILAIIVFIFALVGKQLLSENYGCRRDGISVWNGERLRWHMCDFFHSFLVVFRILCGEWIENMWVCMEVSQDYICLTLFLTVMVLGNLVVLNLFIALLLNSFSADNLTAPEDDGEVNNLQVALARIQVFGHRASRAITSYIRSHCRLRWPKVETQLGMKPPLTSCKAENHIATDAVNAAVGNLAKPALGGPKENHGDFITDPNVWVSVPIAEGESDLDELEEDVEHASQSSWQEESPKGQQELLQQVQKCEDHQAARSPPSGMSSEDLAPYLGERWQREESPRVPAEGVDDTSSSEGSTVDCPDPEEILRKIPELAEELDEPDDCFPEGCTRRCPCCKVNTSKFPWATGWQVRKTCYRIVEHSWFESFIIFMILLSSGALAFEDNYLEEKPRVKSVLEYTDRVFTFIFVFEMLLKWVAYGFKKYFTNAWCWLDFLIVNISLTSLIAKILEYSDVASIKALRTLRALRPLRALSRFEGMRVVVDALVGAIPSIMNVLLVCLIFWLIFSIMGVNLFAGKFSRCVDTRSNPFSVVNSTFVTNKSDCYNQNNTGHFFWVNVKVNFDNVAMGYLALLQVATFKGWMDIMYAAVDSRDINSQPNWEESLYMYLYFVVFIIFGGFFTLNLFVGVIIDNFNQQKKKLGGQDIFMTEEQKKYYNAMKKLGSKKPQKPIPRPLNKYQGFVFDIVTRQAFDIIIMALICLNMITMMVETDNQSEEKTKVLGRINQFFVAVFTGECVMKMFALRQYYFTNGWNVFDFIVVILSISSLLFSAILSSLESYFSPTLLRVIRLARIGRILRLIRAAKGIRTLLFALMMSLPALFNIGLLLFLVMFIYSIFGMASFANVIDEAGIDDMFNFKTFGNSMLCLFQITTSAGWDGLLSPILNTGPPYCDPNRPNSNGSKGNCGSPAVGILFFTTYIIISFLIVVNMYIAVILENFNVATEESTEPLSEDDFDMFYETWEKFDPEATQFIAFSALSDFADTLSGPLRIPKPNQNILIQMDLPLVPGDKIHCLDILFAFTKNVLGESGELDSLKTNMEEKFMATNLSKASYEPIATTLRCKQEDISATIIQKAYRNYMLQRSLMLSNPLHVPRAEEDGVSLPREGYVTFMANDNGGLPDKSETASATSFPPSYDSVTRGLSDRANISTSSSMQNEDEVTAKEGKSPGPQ

[28] = Half-life in FVB mouse at 30 mg/kg, po; assay type: ADME, organism-based; settings: in vivo
[29] = system: Mus musculus; experiment: Antinociceptive activity against aconitine-induced pain in FVB mouse model expressing human Nav 1.7 I848T mutant assessed as reduction in nociceptive behavior at 10 mg/kg administered 120 mins prior to aconitine administration and measured after 70 mins relative to control; assay type: functional; design: scale not given: the % may be the effect or the level left; settings: time 190 min, 3.167 h
[30] = system: Mus musculus; experiment: Antinociceptive activity against aconitine-induced pain in FVB mouse model expressing human Nav 1.7 I848T mutant assessed as reduction in nociceptive behavior at 6 mg/kg administered 120 mins prior to aconitine administration and measured after 70 mins relative to control; assay type: functional; design: scale not given: the % may be the effect or the level left; settings: time 190 min, 3.167 h
[31] = Apparent permeability from apical to basolateral side in MDCK1 cells; assay type: ADME, cell-based, Canis lupus familiaris; settings: dog, MDCK
[32] = Protein binding in mouse plasma; assay type: ADME, cell-free; settings: read-out: PPB (converted)
[33] = target: Sodium channel protein type 5 subunit alpha (Homo sapiens, UniProt Q14524); experiment: Inhibition of human Nav1.5 alpha subunit expressed in HEK293 cells co-expressing beta1 subunit at -60 mV holding potential by PatchXpress automated voltage clamp electrophysiology technique; assay type: cell-based
[34] = AUC in FVB mouse at 30 mg/kg, po; assay type: ADME, organism-based; design: dose 30 mg/kg, route po; settings: in vivo
[35] = Solubility of compound; assay type: physicochemical
[36] = Oral bioavailability in mouse at 30 mg/kg; assay type: ADME, organism-based; settings: in vivo
[37] = Volume of distribution at steady state in mouse at 1 mg/kg, iv; assay type: ADME, organism-based; settings: in vivo, read-out: Vdss
[38] = Cmax in mouse at 30 mg/kg, po; assay type: ADME, organism-based; design: dose 30 mg/kg, route po; settings: in vivo
[39] = AUC in mouse at 30 mg/kg, po; assay type: ADME, organism-based; design: dose 30 mg/kg, route po; settings: in vivo

T1 sequence (Q15858 whole entry): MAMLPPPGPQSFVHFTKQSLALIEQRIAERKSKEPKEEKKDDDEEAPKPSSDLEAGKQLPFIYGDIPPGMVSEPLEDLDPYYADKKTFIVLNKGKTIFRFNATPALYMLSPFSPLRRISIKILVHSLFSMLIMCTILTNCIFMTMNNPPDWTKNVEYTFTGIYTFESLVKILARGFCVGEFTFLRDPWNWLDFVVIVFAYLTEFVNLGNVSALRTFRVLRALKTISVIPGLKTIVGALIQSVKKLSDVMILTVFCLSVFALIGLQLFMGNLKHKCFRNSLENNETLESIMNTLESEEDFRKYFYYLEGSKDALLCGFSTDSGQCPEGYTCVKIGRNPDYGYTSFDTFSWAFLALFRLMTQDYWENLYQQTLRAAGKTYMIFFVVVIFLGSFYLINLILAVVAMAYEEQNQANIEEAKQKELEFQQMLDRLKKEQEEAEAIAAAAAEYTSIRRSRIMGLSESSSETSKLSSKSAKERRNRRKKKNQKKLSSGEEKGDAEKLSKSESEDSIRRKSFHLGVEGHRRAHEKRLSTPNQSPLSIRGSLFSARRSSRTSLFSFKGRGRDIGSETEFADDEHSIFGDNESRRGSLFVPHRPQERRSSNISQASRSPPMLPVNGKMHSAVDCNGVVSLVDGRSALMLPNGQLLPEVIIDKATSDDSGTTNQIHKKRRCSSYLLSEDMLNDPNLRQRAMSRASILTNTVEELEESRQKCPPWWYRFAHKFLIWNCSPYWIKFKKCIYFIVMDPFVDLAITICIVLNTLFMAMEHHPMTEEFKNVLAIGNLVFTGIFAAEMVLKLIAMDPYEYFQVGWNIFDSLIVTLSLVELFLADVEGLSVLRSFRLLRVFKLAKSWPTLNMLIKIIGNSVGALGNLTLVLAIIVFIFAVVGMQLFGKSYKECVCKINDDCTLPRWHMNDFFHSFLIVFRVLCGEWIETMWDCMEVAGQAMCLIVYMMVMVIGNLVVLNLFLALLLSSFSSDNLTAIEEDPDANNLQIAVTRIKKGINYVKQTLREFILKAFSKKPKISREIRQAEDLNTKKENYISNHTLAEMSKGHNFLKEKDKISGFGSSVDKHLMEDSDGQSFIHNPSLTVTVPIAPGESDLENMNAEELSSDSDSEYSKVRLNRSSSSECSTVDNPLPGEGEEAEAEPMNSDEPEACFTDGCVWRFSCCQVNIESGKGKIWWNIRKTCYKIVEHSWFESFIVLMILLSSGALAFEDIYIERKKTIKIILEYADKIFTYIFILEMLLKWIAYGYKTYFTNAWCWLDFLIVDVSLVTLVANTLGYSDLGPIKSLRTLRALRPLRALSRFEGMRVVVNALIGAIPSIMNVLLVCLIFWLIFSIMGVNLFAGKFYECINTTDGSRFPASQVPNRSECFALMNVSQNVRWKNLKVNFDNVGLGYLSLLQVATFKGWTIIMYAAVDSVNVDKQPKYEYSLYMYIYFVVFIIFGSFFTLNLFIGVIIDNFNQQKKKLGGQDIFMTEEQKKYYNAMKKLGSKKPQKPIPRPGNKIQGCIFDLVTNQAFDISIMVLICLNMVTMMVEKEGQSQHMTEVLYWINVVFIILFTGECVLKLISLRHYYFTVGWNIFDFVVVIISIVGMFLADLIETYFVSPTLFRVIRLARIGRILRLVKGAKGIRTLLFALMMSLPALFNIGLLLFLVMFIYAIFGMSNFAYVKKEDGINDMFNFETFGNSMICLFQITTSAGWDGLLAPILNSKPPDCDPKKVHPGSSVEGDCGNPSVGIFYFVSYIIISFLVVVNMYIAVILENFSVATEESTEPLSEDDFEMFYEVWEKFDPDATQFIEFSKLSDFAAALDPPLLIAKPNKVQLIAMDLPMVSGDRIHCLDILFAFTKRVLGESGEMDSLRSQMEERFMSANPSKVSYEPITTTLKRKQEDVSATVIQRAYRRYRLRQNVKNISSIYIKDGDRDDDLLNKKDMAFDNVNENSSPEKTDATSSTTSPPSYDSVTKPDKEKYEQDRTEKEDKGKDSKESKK

SMILES: CS(=O)(=O)NC(=O)c1cc(Cl)c(OCC23CC4(F)CC(F)(CC(F)(C4)C2)C3)cc1F
IC50 [1]: 2400 nM
IC50 [2]: 752 nM

SMILES: CS(=O)(=O)NC(=O)c1cc(F)c(OCC23CC4CC(CC(C4)C2)C3)cc1F
IC50 [1]: 640 nM
IC50 [2]: 41 nM

SMILES: CS(=O)(=O)NC(=O)c1ccc(OCC23CC4CC(CC(C4)C2)C3)c(Cl)c1
IC50 [1]: 330 nM
IC50 [2]: 59 nM

SMILES: CS(=O)(=O)NC(=O)c1cc(Cl)c(OCCC2CC2)cc1F
IC50 [1]: 2700 nM
logD ([3]; read-out: logD): 0.4
IC50 [2]: 440 nM

SMILES: CS(=O)(=O)NC(=O)c1cc(Cl)c(OC2CCCCC2)cc1F
IC50 [1]: 1200 nM
logD ([3]; read-out: logD): 1.3
IC50 [2]: 260 nM

SMILES: CS(=O)(=O)NC(=O)c1cc(Cl)c(OCC23CC4CC(C2)C(F)(F)C(C4)C3)cc1F
IC50 [1]: 290 nM

SMILES: CS(=O)(=O)NC(=O)c1cc(Cl)c(OCC2CCOCC2)cc1F
IC50 [1]: > 10000 nM
logD ([3]; read-out: logD): 0.21
IC50 [2]: 7400 nM

SMILES: CS(=O)(=O)NC(=O)c1cc(Cl)c(OCC23CC4CC(CC(C4)C2)C3)cc1Cl
IC50 [1]: 2300 nM
IC50 [2]: 570 nM

SMILES: CS(=O)(=O)NC(=O)c1cc(Cl)c(OCCC2CCCCC2)cc1F
IC50 [1]: 500 nM
logD ([3]; read-out: logD): 1.5
IC50 [2]: 17 nM

SMILES: CS(=O)(=O)NC(=O)c1cc(Cl)c(OCC23CC4CC(CC(O)(C4)C2)C3)cc1F
IC50 [1]: > 10000 nM
IC50 [2]: 2200 nM

SMILES: CC1(COc2cc(F)c(C(=O)NS(=O)(=O)C3CC3)cc2C2CC2)CCC(F)(F)CC1
Papp A→B [4]: 11 ×10⁻⁶ cm/s
IC50 [5]: 2.5 nM
bioavailability [6]: 66%
Cmax [7]: 25 µM
bioavailability [8]: 49%
logD ([3]; read-out: logD): 1.4
Vd [9]: 0.28 L/kg
IC50 [10]: 6 nM
fraction unbound [11]: 0.002
fraction unbound [12]: 0.004
Activity [13]: 56%
clearance [14]: 0.4 mL/min/kg
Cmax [15]: 69 µM
half-life [16]: 2.1 h
half-life [17]: 16.9 h
IC50 [18]: 49 nM
AUC [19]: 160 µM·h
half-life [20]: 9 h
IC50 [21]: 9 nM
Vd [22]: 0.29 L/kg
IC50 [23]: 48 nM
solubility kinetic [24]: 32 µM (≈ 14.3 µg/mL)
clearance [25]: 1.6 mL/min/kg
Papp A→B [26]: 0.4 ×10⁻⁶ cm/s
inhibition [27]: 26%
half-life [28]: 15.6 h
Activity [29]: 84%
Activity [30]: 72%
Papp A→B [31]: 22 ×10⁻⁶ cm/s
fraction unbound [32]: 0.002
IC50 [33]: 260 nM
AUC [34]: 350 µM·h

SMILES: CS(=O)(=O)NC(=O)c1cc(Cl)c(OCC23CC4CC(CC(F)(C4)C2)C3)cc1F
IC50 [1]: 357 nM

SMILES: CS(=O)(=O)NC(=O)c1cc(Cl)c(OCC2CCCC2)cc1F
IC50 [1]: 520 nM
logD ([3]; read-out: logD): 1.1
IC50 [2]: 68 nM

SMILES: CS(=O)(=O)NC(=O)c1cc(Cl)c(OCC23CC4CC(CC(C4)C2)C3)cc1F
solubility [35]: 31 µM (≈ 12.9 µg/mL)
logD [3]: 3.5
bioavailability [36]: 100%
Vd [37]: 1.2 L/kg
Cmax [38]: 45 µM
AUC [39]: 240 µM·h
Papp A→B [31]: 13 ×10⁻⁶ cm/s

SMILES: COCCS(=O)(=O)NC(=O)c1cc(C2CC2)c(OCC2CCC(F)(F)CC2)cc1F
IC50 [1]: 304 nM
IC50 [2]: 75 nM

The remaining molecules from weak to strong by IC50 [1], led by results:

IC50 [1]: 180 nM
logD ([3]; read-out: logD): 1.4
IC50 [2]: 43 nM
SMILES: CS(=O)(=O)NC(=O)c1cc(Cl)c(OCC2CCCCC2)cc1F

IC50 [1]: 37 nM
IC50 [2]: 6 nM
SMILES: Cc1cc(C(=O)NS(C)(=O)=O)c(F)cc1OCC12CC3CC(CC(C3)C1)C2

IC50 [1]: 33 nM
SMILES: O=C(NS(=O)(=O)C1CC1)c1cc(C2CC2)c(OCC2CCC(F)(F)CC2)cc1F

IC50 [1]: 28 nM
IC50 [2]: 10 nM
SMILES: CC(C)c1cc(C(=O)NS(C)(=O)=O)c(F)cc1OCC12CC3CC(CC(C3)C1)C2

IC50 [1]: 22 nM
IC50 [2]: 0.7 nM
SMILES: CS(=O)(=O)NC(=O)c1cc(C2CC2)c(OCC2CCCCC2)cc1F

IC50 [1]: 17 nM
IC50 [2]: 5 nM
SMILES: CCC1(COc2cc(F)c(C(=O)NS(=O)(=O)C3CC3)cc2C2CC2)CCC(F)(F)CC1

IC50 [1]: 15 nM
IC50 [2]: 6 nM
SMILES: CCc1cc(C(=O)NS(C)(=O)=O)c(F)cc1OCC12CC3CC(CC(C3)C1)C2

IC50 [1]: 10 nM
IC50 [2]: 6 nM
SMILES: CC1(COc2cc(F)c(C(=O)NS(=O)(=O)C3CC3)cc2C2CC2)CCC(C(F)(F)F)CC1 (configuration not stated)

IC50 [1]: 8 nM
IC50 [2]: 3.1 nM
SMILES: CS(=O)(=O)NC(=O)c1cc(C2CC2)c(OCC23CC4CC(C2)C(F)(F)C(C4)C3)cc1F

IC50 [1]: 6 nM
SMILES: CS(=O)(=O)NC(=O)c1cc(C2CC2)c(OCC23CC4CC(CC(C4)C2)C3)cc1F
